# Laboratory results published in patent publication US4431664A, “Compound with antiulcerogenic activity, process for the preparation thereof and pharmaceutical composition therefrom” (Ausonia Farmaceutici s.r.l., priority 1981, dated 1984).
# System: mouse
# Assay: Toxicity by single intraperitoneal administration, LD50 (Litchfield and Wilcoxon)
# Type: in vivo
# Settings: i.p., in words
# Source text: The toxicity of AP 880 by single administration has been studied in comparison with the toxicity of ranitidine in mouse, by administration of larger and larger doses of compound (I) by the intraperitoneal route. The LD50 values, determined according to the method of Litchfield and Wilcoxon (J. Pharm. Exp. Ther. 96-99, (1949)) are reported in the following Table: […]
compound,measurement,value
"CN(C)Cc1ccc(CSCCNC(=C[N+](=O)[O-])NCc2ccc3c(c2)OCO3)o1 [AP 880, N-(2-(((5-(dimethylamino)-methyl-2-furanyl)-methyl)-thio)-ethyl)-N'-(3,4-methylenedioxybenzyl)-2-nitro-1,1-ethendiamine]",toxicity with respect to ranitidine,substantially lower toxicity
